MIC data for ten molecules are collected here from DBAASP.

Converted amounts (≈) assume the structure as drawn. “And” between values parts separate entries of the source, which are not always exact repeats. Equal entries are not always repeated.

Among the test systems are Staphylococcus aureus; Escherichia coli; Bacillus cereus; Bacillus subtilis; Klebsiella pneumoniae; Pseudomonas aeruginosa; Acinetobacter baumannii.
What all share (test): ≥ marks a high value that may be exact or a test limit, other limits are often not marked, values filed in µg/mL are converted to µM
Assay [1] has as its system Enterococcus faecalis ATCC 29212.
The subject of assay [2] is Klebsiella pneumoniae ATCC 13883.
In assay [3] the test system is Staphylococcus aureus ATCC 25923.
The subject of assay [4] is Pseudomonas aeruginosa ATCC 27853.
In assay [5] the test system is Escherichia coli DH5alpha.
Assay [6] concerns Salmonella enterica subsp. enterica serovar Typhimurium ATCC 14028.
For assay [7], the system named is Candida albicans ATCC 2002.
Assay [8] deals with Pseudomonas aeruginosa CMCCB 10104.
Assay [9] relates to Escherichia coli ATCC 25922.
Assay [10] deals with Salmonella typhimurium KCTC 1926.
In assay [11] the test system is Bacillus subtilis KCTC 3068.
Assay [12] concerns Staphylococcus epidermidis KCTC 1917.
The subject of assay [13] is Staphylococcus aureus KCTC 1621.
Assay [14] relates to Pseudomonas aeruginosa KCTC 1637.
The subject of assay [15] is Escherichia coli KCTC 1682.
Assay [16] deals with Acinetobacter baumannii ATCC 19606.
The test system of assay [17] is Pseudomonas aeruginosa PAO1.

For orientation: MIC means the smallest concentration in the dilution series that meets the test's criterion for growth inhibition. A low value points to greater potency. For `CC(C)C[C@H](NC(=O)[C@@H](N)Cc1ccccc1)C(=O)NCC(=O)NCC(=O)N[C@H](C(=O)N[C@@H](Cc1ccccc1)C(=O)N[C@@H](CCCCN)C(=O)N[C@@H](CCCCN)C(=O)N[C@@H](C)C(=O)N[C@@H](CO)C(=O)N[C@@H](CCCCN)C(=O)N[C@H](C(=O)N[C@@H](Cc1ccccc1)C(=O)NCC(=O)N[C@@H](C)C(=O)N[C@H](C(=O)N[C@@H](Cc1ccccc1)C(=O)NCC(=O)N[C@@H](CCCCN)C(=O)N[C@H](C(=O)O)C(C)C)C(C)C)C(C)C)C(C)C` [FLGGVFKKASKVFGAVFGKV], the MIC in the assay on Staphylococcus aureus is above 123 µM; against Escherichia coli it was 15.3 µM (≈ 32 µg/mL); against Bacillus cereus, at least 61.3 µM.

As for `CC[C@H](C)[C@H](NC(=O)CN)C(=O)NCC(=O)N[C@@H](CCCCN)C(=O)N[C@@H](C)C(=O)N[C@@H](CC(C)C)C(=O)N[C@@H](CCCCN)C(=O)N[C@@H](CCCCN)C(=O)N[C@@H](C)C(=O)N[C@@H](CCCCN)C(=O)N[C@@H](CCCCN)C(=O)NCC(=O)N[C@H](C(=O)NCC(=O)N[C@@H](C)C(=O)N[C@H](C(=O)N[C@@H](CC(C)C)C(=O)N[C@@H](CCCCN)C(=O)N[C@H](C(=O)N[C@@H](CC(C)C)C(=O)N[C@H](C(=O)N[C@H](C(=O)NCC(=O)N[C@@H](CC(C)C)C(=O)O)[C@@H](C)O)[C@@H](C)O)C(C)C)C(C)C)[C@@H](C)CC` [GIGKALKKAKKGIGAVLKVLTTGL], the MIC in assay [1] was 32 µM (≈ 75.7 µg/mL); in assay [2], 8 µM (≈ 18.9 µg/mL); in [3] it was 4 µM (≈ 9.46 µg/mL); in [4], 45 µM (≈ 106 µg/mL); in assay [5], 15 µM (≈ 35.5 µg/mL); in assay [6] it was 8 µM (≈ 18.9 µg/mL). In addition, the MIC against Bacillus subtilis is 8 µM (≈ 18.9 µg/mL).

Consider `CC[C@H](C)[C@H](NC(=O)CN)C(=O)N[C@@H](CC(C)C)C(=O)N[C@@H](CO)C(=O)NCC(=O)N[C@H](C(=O)N[C@@H](CC(C)C)C(=O)NCC(=O)N[C@@H](CCSC)C(=O)NCC(=O)N[C@@H](CCCCN)C(=O)N[C@@H](CCCCN)C(=O)N[C@H](C(=O)N[C@H](C(=O)N[C@H]1CSSC[C@@H](C(=O)O)NC(=O)[C@H](CC(C)C)NC(=O)CNC(=O)[C@H](CO)NC(=O)[C@H](CC(C)C)NC(=O)CNC1=O)C(C)C)[C@@H](C)CC)C(C)C` [GILSGVLGMGKKIVCGLSGLC], for which the MIC with Staphylococcus aureus worked out at 50 µM (≈ 100 µg/mL); in assay [3], 4.39 µM (≈ 8.79 µg/mL); in the assay on Escherichia coli, 25 µM (≈ 50.1 µg/mL); in assay [7], 2.19 µM (≈ 4.4 µg/mL); in assay [8] it was 4.39 µM (≈ 8.79 µg/mL); in assay [9], 2.19 µM (≈ 4.4 µg/mL).

In the case of `CC[C@H](C)[C@H](N)C(=O)NCC(=O)N[C@@H](CCCCN)C(=O)N[C@@H](CCCCN)C(=O)N[C@@H](Cc1ccccc1)C(=O)N[C@@H](CCCCN)C(=O)N[C@@H](CCCN=C(N)N)C(=O)N[C@H](C(=O)N[C@H](C(=O)N[C@@H](CCCCN)C(=O)N[C@@H](CCCN=C(N)N)C(=O)N[C@H](C(=O)N[C@@H](CCCCN)C(=O)N[C@@H](CCCCN)C(=O)N[C@@H](Cc1ccccc1)C(=O)N[C@@H](CC(C)C)C(=O)N[C@@H](CCCN=C(N)N)C(=O)N[C@@H](CCCCN)C(=O)N[C@@H](CC(C)C)C(=O)O)[C@@H](C)CC)C(C)C)[C@@H](C)CC` [IGKKFKRIVKRIKKFLRKL], the MIC in assay [10] was determined as 2 µM (≈ 4.8 µg/mL); in assay [11], 2 µM (≈ 4.8 µg/mL); in [12], 4 µM (≈ 9.6 µg/mL); in assay [13], 4 µM (≈ 9.6 µg/mL); in assay [14], 8 µM (≈ 19.2 µg/mL); in assay [15] it was 8 µM (≈ 19.2 µg/mL).

Turning to `CC[C@H](C)[C@H](NC(=O)[C@H](CCCCN)NC(=O)[C@H](CC(C)C)NC(=O)[C@H](C)NC(=O)[C@H](CCCCN)NC(=O)[C@H](CC(C)C)NC(=O)[C@H](C)NC(=O)CNC(=O)[C@H](CCCCN)NC(=O)[C@H](C)NC(=O)[C@@H](NC(=O)[C@@H](N)CCCCN)[C@@H](C)CC)C(=O)N[C@@H](C)C(=O)N[C@@H](CCCCN)C(=O)NCC(=O)N[C@@H](C)C(=O)N[C@@H](CC(C)C)C(=O)N[C@@H](CCCCN)C(=O)N[C@@H](C)C(=O)N[C@@H](CC(C)C)C(N)=O` [KIAKGALKALKIAKGALKAL], the MIC in the assay with Staphylococcus aureus turned out to be 16 µM (≈ 32.1 µg/mL); in assay [2], 2.83 µM (≈ 5.67 µg/mL); in assay [16] it was 1.41 µM (≈ 2.84 µg/mL); in assay [3], 22.6 µM (≈ 45.4 µg/mL); in the assay on Escherichia coli, 64 µM (≈ 128 µg/mL); in the assay on Klebsiella pneumoniae, 8 µM (≈ 16 µg/mL). For the same molecule, the MIC in assay [4] was 11.3 µM (≈ 22.7 µg/mL); in the assay with Pseudomonas aeruginosa, 11.3 µM (≈ 22.7 µg/mL); in assay [9] it was 4 µM (≈ 8.02 µg/mL); against Acinetobacter baumannii it was at least 64 µM.

In the case of `CC[C@H](C)[C@H](NC(=O)[C@@H](NC(=O)[C@H](CC(C)C)NC(=O)[C@H](C)NC(=O)[C@@H]1CCCN1C(=O)CNC(=O)[C@H](Cc1ccc(O)cc1)NC(=O)[C@@H](N)CCCCN)C(C)C)C(=O)N[C@@H](C)C(=O)N[C@H](C(=O)N[C@@H](CCCCN)C(=O)N[C@@H](CCCCN)C(=O)N[C@@H](CO)C(=O)N[C@@H](CS)C(=O)N[C@@H](CO)C(=O)N[C@@H](CC(C)C)C(=O)N[C@H](C(=O)N[C@@H](Cc1ccccc1)C(=O)N[C@@H](CCCN=C(N)N)C(=O)N[C@@H](C)C(=O)O)[C@@H](C)O)C(C)C` [KYGPALVIAVKKSCSLTFRA], the figures for the MIC in the assay with Escherichia coli and in the assay with Bacillus cereus were above 119 µM and at least 119 µM, respectively.

In the case of `CC(C)C[C@H](NC(=O)[C@H](C)NC(=O)[C@H](Cc1c[nH]c2ccccc12)NC(=O)CNC(=O)[C@H](CCCN=C(N)N)NC(=O)[C@@H](N)CCCN=C(N)N)C(=O)N[C@@H](CCCN=C(N)N)C(=O)N1CCC[C@H]1C(=O)N[C@H](C(=O)N[C@@H](CC(C)C)C(=O)N[C@@H](C)C(=O)N[C@@H](Cc1ccccc1)C(=O)NCC(=O)N[C@@H](CCCN=C(N)N)C(=O)N[C@@H](CCCN=C(N)N)C(N)=O)C(C)C` [RRGWALRPVLAFGRR], the MIC is 30 µM (≈ 54.3 µg/mL) in assay [2]; above 30 µM in assay [16]; above 30 µM in assay [3]; above 30 µM in assay [9]; 14.8 µM and 30 µM in assay [17]; above 30 µM in assay [6].

For `CC(C)C[C@H](NC(=O)[C@H](CCCN=C(N)N)NC(=O)[C@H](CCCN=C(N)N)NC(=O)[C@H](C)NC(=O)[C@H](Cc1c[nH]c2ccccc12)NC(=O)CNC(=O)[C@H](CCCN=C(N)N)NC(=O)[C@@H](N)CCCN=C(N)N)C(=O)N[C@@H](C)C(=O)N[C@@H](Cc1ccccc1)C(=O)NCC(=O)N[C@@H](CCCN=C(N)N)C(=O)N[C@@H](CCCN=C(N)N)C(N)=O` [RRGWARRLAFGRR], the MIC in assay [2] was 30 µM (≈ 49.7 µg/mL); in assay [16], above 30 µM; in [3], above 30 µM; in [9], above 30 µM; in assay [17], above 30 µM; in assay [6], above 30 µM.

As to `CC[C@H](C)[C@H](NC(=O)[C@@H](NC(=O)[C@@H](NC(=O)[C@@H](NC(=O)[C@H](CCCN=C(N)N)NC(=O)[C@H](CCCCN)NC(=O)[C@@H](NC(=O)CNC(=O)[C@@H]1CCCN1C(=O)[C@@H](NC(=O)[C@H](CO)NC(=O)[C@H](Cc1ccccc1)NC(=O)[C@@H](NC(=O)CNC(=O)[C@H](C)NC(=O)[C@H](CC(C)C)NC(=O)[C@@H]1CCCN1C(=O)[C@H](Cc1ccccc1)NC(=O)[C@H](CCCCN)NC(=O)[C@@H](N)CO)[C@@H](C)CC)C(C)C)C(C)C)C(C)C)C(C)C)C(C)C)C(=O)O` [SKFPLAGIFSVPGVKRVVVI], the MIC in the assay on Escherichia coli is above 121 µM; against Bacillus cereus, at least 121 µM.

`CC[C@H](C)[C@H](NC(=O)[C@H](Cc1ccccc1)NC(=O)[C@H](CCCCN)NC(=O)[C@H](C)NC(=O)[C@H](CC(C)C)NC(=O)[C@H](CC(=O)O)NC(=O)[C@H](CCCCN)NC(=O)[C@@H](N)C(C)C)C(=O)N[C@@H](C)C(=O)N[C@@H](CCCCN)C(=O)N[C@H](C(=O)N[C@H](C(=O)N[C@@H](C)C(=O)N[C@@H](CCCCN)C(=O)N[C@@H](CCC(N)=O)C(=O)NCC(=O)NCC(=O)N[C@@H](CS)C(=O)N[C@@H](Cc1ccc(O)cc1)C(=O)N[C@@H](CC(C)C)C(=O)O)C(C)C)[C@@H](C)O` [VKDLAKFIAKTVAKQGGCYL]: the MIC with Escherichia coli was above 59.4 µM; against Bacillus cereus, at least 59.4 µM.
